From the supplement of paper PMC10307832

Key:
Assay in all cases: relative viability (nuclei count vs DMSO), 5 days (fraction); higher = more cells survive
NCI-H1755 = test system: NCI-H1755
Summary of the method: (§1)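 Lung cancer cell lines, seeded in 1536-well plates, were treated the following day by pin tool with a single drug or with five library-drug doses (not always all listed) in √10 steps on top of a fixed anchor-drug dose. Cells were fixed and nuclei stained in one step after 5 days, and nuclei were counted. Relative viability is the nuclei count for treated wells divided by that for vehicle wells, reported as medians of duplicate plates.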

H3255 = test system: H3255
Summary of the method: as §1

NCI-H441 = test system: NCI-H441
Summary of the method: as §1

NCI-H23 = test system: NCI-H23
Summary of the method: as §1

SW 900 = test system: SW 900
Summary of the method: as §1

NCI-H1792 = test system: NCI-H1792
Summary of the method: as §1

NCI-H520 = test system: NCI-H520
Summary of the method: as §1

NCI-H1563 = test system: NCI-H1563
Summary of the method: as §1

COR-L 105 = test system: COR-L 105
Summary of the method: as §1

PC-3 [JPC-3] = test system: PC-3 [JPC-3]
Summary of the method: as §1

LOU-NH91 = test system: LOU-NH91
Summary of the method: as §1

NCI-H596 = test system: NCI-H596
Summary of the method: as §1

NCI-H2170 = test system: NCI-H2170
Summary of the method: as §1

HCC-366 = test system: HCC-366
Summary of the method: as §1

NCI-H1734 = test system: NCI-H1734
Summary of the method: as §1

EMC-BAC-2 = test system: EMC-BAC-2
Summary of the method: as §1

SK-MES-1 = test system: SK-MES-1
Summary of the method: as §1

ChaGo-K-1 = test system: ChaGo-K-1
Summary of the method: as §1

NCI-H1975 = test system: NCI-H1975
Summary of the method: as §1

NCI-H1666 = test system: NCI-H1666
Summary of the method: as §1

A-427 = test system: A-427
Summary of the method: as §1

LK-2 = test system: LK-2
Summary of the method: as §1

EKVX = test system: EKVX
Summary of the method: as §1

NCI-H1944 = test system: NCI-H1944
Summary of the method: as §1

C[C@@H]1CN(CC(=O)Nc2ccc3c(c2)Cc2cccc(-c4cc(=O)cc(N5CCOCC5)o4)c2S3)C[C@H](C)O1 + COc1cccc2cc(-c3nc([C@H]4CC[C@H](C(=O)O)CC4)n4ncnc(N)c34)[nH]c12 [OSI-027] (partner 0.5 µM)
relative viability (NCI-H1755; first compound 0.04 µM): 0.697
relative viability (NCI-H1755; first compound 0.1265 µM): 0.651
relative viability (NCI-H1755; first compound 0.4 µM): 0.668
relative viability (NCI-H1755; first compound 4 µM): 0.578
relative viability (H3255; first compound 0.04 µM): 0.599
relative viability (H3255; first compound 0.1265 µM): 0.624
relative viability (H3255; first compound 0.4 µM): 0.48
relative viability (H3255; first compound 4 µM): 0.491
relative viability (NCI-H441; first compound 0.04 µM): 0.74
relative viability (NCI-H441; first compound 0.1265 µM): 0.791
relative viability (NCI-H441; first compound 0.4 µM): 0.398
relative viability (NCI-H441; first compound 4 µM): 0.438
relative viability (NCI-H23; first compound 0.04 µM): 0.732
relative viability (NCI-H23; first compound 0.1265 µM): 0.572
relative viability (NCI-H23; first compound 0.4 µM): 0.558
relative viability (NCI-H23; first compound 4 µM): 0.426
relative viability (SW 900; first compound 0.04 µM): 0.455
relative viability (SW 900; first compound 0.1265 µM): 0.573
relative viability (SW 900; first compound 0.4 µM): 0.647
relative viability (SW 900; first compound 4 µM): 0.45
relative viability (NCI-H1792; first compound 0.04 µM): 0.692
relative viability (NCI-H1792; first compound 0.1265 µM): 0.639
relative viability (NCI-H1792; first compound 0.4 µM): 0.633
relative viability (NCI-H1792; first compound 4 µM): 0.458
relative viability (NCI-H520; first compound 0.04 µM): 0.272
relative viability (NCI-H520; first compound 0.1265 µM): 0.227
relative viability (NCI-H520; first compound 0.4 µM): 0.221
relative viability (NCI-H520; first compound 4 µM): 0.264
relative viability (NCI-H1563; first compound 0.04 µM): 0.765
relative viability (NCI-H1563; first compound 0.1265 µM): 0.71
relative viability (NCI-H1563; first compound 0.4 µM): 0.689
relative viability (NCI-H1563; first compound 4 µM): 0.72
relative viability (COR-L 105; first compound 0.04 µM): 0.728
relative viability (COR-L 105; first compound 0.1265 µM): 0.828
relative viability (COR-L 105; first compound 0.4 µM): 0.823
relative viability (COR-L 105; first compound 4 µM): 0.661
relative viability (PC-3 [JPC-3]; first compound 0.04 µM): 0.81
relative viability (PC-3 [JPC-3]; first compound 0.1265 µM): 0.815
relative viability (PC-3 [JPC-3]; first compound 0.4 µM): 0.66
relative viability (PC-3 [JPC-3]; first compound 4 µM): 0.577
relative viability (LOU-NH91; first compound 0.04 µM): 0.746
relative viability (LOU-NH91; first compound 0.1265 µM): 0.711
relative viability (LOU-NH91; first compound 0.4 µM): 0.724
relative viability (LOU-NH91; first compound 4 µM): 0.7
relative viability (NCI-H596; first compound 0.04 µM): 0.899
relative viability (NCI-H596; first compound 0.1265 µM): 0.931
relative viability (NCI-H596; first compound 0.4 µM): 0.537
relative viability (NCI-H596; first compound 4 µM): 0.549
relative viability (NCI-H2170; first compound 0.04 µM): 0.712
relative viability (NCI-H2170; first compound 0.1265 µM): 0.685
relative viability (NCI-H2170; first compound 0.4 µM): 0.581
relative viability (NCI-H2170; first compound 4 µM): 0.707
relative viability (HCC-366; first compound 0.04 µM): 1.04
relative viability (HCC-366; first compound 0.1265 µM): 0.867
relative viability (HCC-366; first compound 0.4 µM): 0.648
relative viability (HCC-366; first compound 4 µM): 0.502
relative viability (NCI-H1734; first compound 0.04 µM): 0.655
relative viability (NCI-H1734; first compound 0.1265 µM): 0.598
relative viability (NCI-H1734; first compound 0.4 µM): 0.48
relative viability (NCI-H1734; first compound 4 µM): 0.67
relative viability (EMC-BAC-2; first compound 0.04 µM): 0.392
relative viability (EMC-BAC-2; first compound 0.1265 µM): 0.429
relative viability (EMC-BAC-2; first compound 0.4 µM): 0.385
relative viability (EMC-BAC-2; first compound 4 µM): 0.39
relative viability (SK-MES-1; first compound 0.04 µM): 0.664
relative viability (SK-MES-1; first compound 0.1265 µM): 0.566
relative viability (SK-MES-1; first compound 0.4 µM): 0.503
relative viability (SK-MES-1; first compound 4 µM): 0.49
relative viability (ChaGo-K-1; first compound 0.04 µM): 0.525
relative viability (ChaGo-K-1; first compound 0.1265 µM): 0.593
relative viability (ChaGo-K-1; first compound 0.4 µM): 0.531
relative viability (ChaGo-K-1; first compound 4 µM): 0.533
relative viability (NCI-H1975; first compound 0.04 µM): 0.74
relative viability (NCI-H1975; first compound 0.1265 µM): 0.602
relative viability (NCI-H1975; first compound 0.4 µM): 0.608
relative viability (NCI-H1975; first compound 4 µM): 0.448
relative viability (NCI-H1666; first compound 0.04 µM): 0.932
relative viability (NCI-H1666; first compound 0.1265 µM): 0.87
relative viability (NCI-H1666; first compound 0.4 µM): 0.978
relative viability (NCI-H1666; first compound 4 µM): 0.838
relative viability (A-427; first compound 0.04 µM): 0.501
relative viability (A-427; first compound 0.1265 µM): 0.53
relative viability (A-427; first compound 0.4 µM): 0.482
relative viability (A-427; first compound 4 µM): 0.575
relative viability (LK-2; first compound 0.04 µM): 0.196
relative viability (LK-2; first compound 0.1265 µM): 0.207
relative viability (LK-2; first compound 0.4 µM): 0.162
relative viability (LK-2; first compound 4 µM): 0.257
relative viability (EKVX; first compound 0.04 µM): 0.713
relative viability (EKVX; first compound 0.1265 µM): 0.676
relative viability (EKVX; first compound 0.4 µM): 0.712
relative viability (EKVX; first compound 4 µM): 0.618
relative viability (NCI-H1944; first compound 0.04 µM): 0.386
relative viability (NCI-H1944; first compound 0.1265 µM): 0.475
relative viability (NCI-H1944; first compound 0.4 µM): 0.389
relative viability (NCI-H1944; first compound 4 µM): 0.336
